According to US20230398130A1, “METHODS AND COMPOSITIONS FOR DIFFERENTIATING STEM CELLS” (Massachusetts Institute of Technology, priority 2020, published 2023):

Legend:
ISC-enriched organoids [1] = assay: Primary screen, 384-well 2.5-D organoid differentiation (ENR+CD, 6 days): basal lysozyme secretion (LYZ.NS); format: cell-based, murine; conditions: for Dose.FC.LYZ.NS (log 2 fold change, basal lysozyme secretion): vs plate median; for Dose.FC.LYZ.NS: FC vs plate median; for Z.LYZ.NS: standard z score of FC
From the text: (§1) High-throughput screening.

ISC-enriched organoids [2] = assay: Primary screen, 384-well 2.5-D organoid differentiation (ENR+CD, 6 days): carbachol-induced lysozyme secretion (LYZ.S); format: cell-based, murine; conditions: for Dose.FC.LYZ.S (log 2 fold change, carbachol-induced lysozyme secretion): vs plate median; for Dose.FC.LYZ.S: FC vs plate median
From the text: as §1

ISC-enriched organoids [3] = assay: Primary screen, 384-well 2.5-D organoid differentiation (ENR+CD, 6 days, Target Selective Inhibitor Library, vs whole-plate median): ATP (CellTiter-Glo 3D, CTG); conditions: for Dose.FC.CTG (log 2 fold change, ATP): vs plate median; for Dose.FC.CTG: FC vs plate median; for Z.CTG: standard z score of FC
[4] = primary screen, dose 0.08 uM, ENR+CD 6 days
[5] = primary screen, dose 0.40 uM, ENR+CD 6 days
[6] = primary screen, dose 2.00 uM, ENR+CD 6 days
[7] = primary screen, dose 10.00 uM, ENR+CD 6 days

Question: Which results are given for N#C[C@@H]1CCCN1C(=O)CNC12CC3CC(CC(O)(C3)C1)C2 [Vildagliptin (LAF-237)]?
Answer: Z.LYZ.NS (standard z score) (ISC-enriched organoids [1]; dose 0.08 uM): 1.285; Dose.FC.LYZ.NS (log 2 fold change, basal lysozyme secretion) (ISC-enriched organoids [1]; dose 0.08 uM): 0.148; Z.LYZ.NS (standard z score) (ISC-enriched organoids [1]; dose 0.40 uM): 2.004; Dose.FC.LYZ.NS (log 2 fold change, basal lysozyme secretion) (ISC-enriched organoids [1]; dose 0.40 uM): 0.230; Z.LYZ.NS (standard z score) (ISC-enriched organoids [1]; dose 2.00 uM): 1.478; Dose.FC.LYZ.NS (log 2 fold change, basal lysozyme secretion) (ISC-enriched organoids [1]; dose 2.00 uM): 0.170; Z.LYZ.NS (standard z score) (ISC-enriched organoids [1]; dose 10.00 uM): 0.846; Dose.FC.LYZ.NS (log 2 fold change, basal lysozyme secretion) (ISC-enriched organoids [1]; dose 10.00 uM): 0.097; Dose.FC.LYZ.S (log 2 fold change, carbachol-induced lysozyme secretion) (ISC-enriched organoids [2]; dose 0.08 uM): 0.099; Dose.FC.LYZ.S (log 2 fold change, carbachol-induced lysozyme secretion) (ISC-enriched organoids [2]; dose 0.40 uM): 0.113; Dose.FC.LYZ.S (log 2 fold change, carbachol-induced lysozyme secretion) (ISC-enriched organoids [2]; dose 2.00 uM): 0.038; Dose.FC.LYZ.S (log 2 fold change, carbachol-induced lysozyme secretion) (ISC-enriched organoids [2]; dose 10.00 uM): 0.013; Z.CTG (standard z score) (ISC-enriched organoids [3]; dose 0.08 uM): 0.553; Dose.FC.CTG (log 2 fold change, ATP) (ISC-enriched organoids [3]; dose 0.08 uM): 0.232; Z.CTG (standard z score) (ISC-enriched organoids [3]; dose 0.40 uM): 0.547; Dose.FC.CTG (log 2 fold change, ATP) (ISC-enriched organoids [3]; dose 0.40 uM): 0.229; Z.CTG (standard z score) (ISC-enriched organoids [3]; dose 2.00 uM): 0.358; Dose.FC.CTG (log 2 fold change, ATP) (ISC-enriched organoids [3]; dose 2.00 uM): 0.150; Z.CTG (standard z score) (ISC-enriched organoids [3]; dose 10.00 uM): 0.811; Dose.FC.CTG (log 2 fold change, ATP) (ISC-enriched organoids [3]; dose 10.00 uM): 0.339

Question: Which results are given for CCn1c2ccccc2c2cc(Nc3ccnc(NCCCN4CCOCC4)n3)ccc21 [EHop-016]?
Answer: Dose.FC.LYZ.NS (ISC-enriched organoids [1]; Dose 0.08 uM, ENR+CD, 6 days): 0.177 log 2 fold change; Z.LYZ.NS (ISC-enriched organoids [1]; Dose 0.08 uM): 1.537; Dose.FC.LYZ.NS (ISC-enriched organoids [1]; Dose 0.40 uM, ENR+CD, 6 days): 0.035 log 2 fold change; Z.LYZ.NS (ISC-enriched organoids [1]; Dose 0.40 uM): 0.302; Dose.FC.LYZ.NS (ISC-enriched organoids [1]; Dose 2.00 uM, ENR+CD, 6 days): 0.029 log 2 fold change; Z.LYZ.NS (ISC-enriched organoids [1]; Dose 2.00 uM): 0.252; Dose.FC.LYZ.NS (ISC-enriched organoids [1]; Dose 10.00 uM, ENR+CD, 6 days): −0.203 log 2 fold change; Z.LYZ.NS (ISC-enriched organoids [1]; Dose 10.00 uM): −1.769; Dose.FC.LYZ.S (ISC-enriched organoids [2]; Dose 0.08 uM, ENR+CD, 6 days): 0.091 log 2 fold change; Dose.FC.LYZ.S (ISC-enriched organoids [2]; Dose 0.40 uM, ENR+CD, 6 days): 0.012 log 2 fold change; Dose.FC.LYZ.S (ISC-enriched organoids [2]; Dose 2.00 uM, ENR+CD, 6 days): −0.011 log 2 fold change; Dose.FC.LYZ.S (ISC-enriched organoids [2]; Dose 10.00 uM, ENR+CD, 6 days): −0.299 log 2 fold change; Dose.FC.CTG (ISC-enriched organoids [3]; Dose 0.08 uM, ENR+CD, 6 days): 0.081 log 2 fold change; Z.CTG (ISC-enriched organoids [3]; Dose 0.08 uM): 0.193; Dose.FC.CTG (ISC-enriched organoids [3]; Dose 0.40 uM, ENR+CD, 6 days): 0.062 log 2 fold change; Z.CTG (ISC-enriched organoids [3]; Dose 0.40 uM): 0.147; Dose.FC.CTG (ISC-enriched organoids [3]; Dose 2.00 uM, ENR+CD, 6 days): 0.088 log 2 fold change; Z.CTG (ISC-enriched organoids [3]; Dose 2.00 uM): 0.211; Dose.FC.CTG (ISC-enriched organoids [3]; Dose 10.00 uM, ENR+CD, 6 days): −0.757 log 2 fold change; Z.CTG (ISC-enriched organoids [3]; Dose 10.00 uM): −1.808

Question: Which results are given for CC(=O)Nc1cccc2c1c(Sc1ccc(Cl)cc1)c(C)n2CC(=O)O [AZD1981]?
Answer: Dose.FC.LYZ.NS (ISC-enriched organoids [1]; [4]): 0.009 log 2 fold change; Z.LYZ.NS (ISC-enriched organoids [1]; primary screen, dose 0.08 uM): 0.081; Dose.FC.LYZ.NS (ISC-enriched organoids [1]; [5]): 0.001 log 2 fold change; Z.LYZ.NS (ISC-enriched organoids [1]; primary screen, dose 0.40 uM): 0.008; Dose.FC.LYZ.NS (ISC-enriched organoids [1]; [6]): 0.001 log 2 fold change; Z.LYZ.NS (ISC-enriched organoids [1]; primary screen, dose 2.00 uM): 0.011; Dose.FC.LYZ.NS (ISC-enriched organoids [1]; [7]): 0.024 log 2 fold change; Z.LYZ.NS (ISC-enriched organoids [1]; primary screen, dose 10.00 uM): 0.205; Dose.FC.LYZ.S (ISC-enriched organoids [2]; [4]): 0.023 log 2 fold change; Dose.FC.LYZ.S (ISC-enriched organoids [2]; [5]): 0.191 log 2 fold change; Dose.FC.LYZ.S (ISC-enriched organoids [2]; [6]): 0.014 log 2 fold change; Dose.FC.LYZ.S (ISC-enriched organoids [2]; [7]): 0.070 log 2 fold change; Dose.FC.CTG (ISC-enriched organoids [3]; [4]): 0.400 log 2 fold change; Z.CTG (ISC-enriched organoids [3]; primary screen, dose 0.08 uM): 0.955; Dose.FC.CTG (ISC-enriched organoids [3]; [5]): 0.285 log 2 fold change; Z.CTG (ISC-enriched organoids [3]; primary screen, dose 0.40 uM): 0.681; Dose.FC.CTG (ISC-enriched organoids [3]; [6]): 0.099 log 2 fold change; Z.CTG (ISC-enriched organoids [3]; primary screen, dose 2.00 uM): 0.236; Dose.FC.CTG (ISC-enriched organoids [3]; [7]): 0.238 log 2 fold change; Z.CTG (ISC-enriched organoids [3]; primary screen, dose 10.00 uM): 0.570
